We go through 5 compounds from patent publication US11596644B2, “Method for treating post-prandial hypoglycemia” (AVOLYNT, priority 2018, dated 2023).

Marks after values point to notes of the source that are not given here.

In test [1] the test system is STZ-induced diabetic rats. Put plainly: OGTT in STZ-induced diabetic rats (Example 8). The conditions noted are these: for Plasma glucose 0 hr: before dosing; for Plasma glucose 0 hr / Plasma glucose 0.5 hr / Plasma glucose 1 hr / Plasma glucose 2 hr / Plasma glucose 3 hr / ΔAUC (0-1) / ΔAUC (0-1) (% of Control): glucose 2 g/kg, mean ± S.E.M.; for PG elevation after glucose administration: 0.03 and 0.1 mg/kg oral, OGTT 2 g/kg. It is filed as in vivo, rat. On the procedure: (§1) Study in diabetic rats with glucose. Diabetic rats, induced by intravenous injection of streptozotocin (STZ; 40 mg/kg), were used to determining plasma glucose concentration (PG) 1 hr after oral glucose tolerance test (OGTT). […] Blood was collected via the caudal artery immediately before dosing and 0.5, 1, 2, and 3 hr after dosing. The glucose concentration measurement in plasma used Glucose CII-Test Wako kit (Wako Pure Chemicals Industries, Ltd., Osaka, Japan). The variables used for efficacy assessment were the measurement values of the plasma glucose concentration and the area under the curve for plasma glucose concentration through 1 hr after loading (ΔAUC0-1 hr). The ΔAUC0-1 hr for plasma glucose was calculated based on the trapezoid method using the change of plasma glucose concentrations from pre-value (0 hr).

The test system of test [2] is STZ-induced diabetic rats. Put plainly: Oral mixed-carbohydrate tolerance test (OMCTT) in STZ-induced diabetic rats (Example 9). The conditions noted are these: for Plasma glucose 0 hr: before dosing; for Plasma glucose 0 hr / Plasma glucose 0.5 hr / Plasma glucose 1 hr / Plasma glucose 2 hr / Plasma glucose 3 hr / ΔAUC (0-1) / ΔAUC (0-1) (% of Control): mixed-carbohydrate load, mean ± S.E.M.; for PG elevation after glucose administration: 0.03 and 0.1 mg/kg oral, OMCTT. It is filed as in vivo, rat. On the procedure: as §1, with “with mixed carbohydrates.” for “with glucose.”, “oral mixed-carbohydrate” for “oral glucose”, “test (OMCTT).” for “test (OGTT).”

Test [3] deals with healthy adult male volunteers. Briefly: Repeat dose study in humans, pharmacodynamic parameters after meals. The conditions noted are these: repeat dosing. The class given is in vivo, human. The protocol: Repeat dose study in humans. Oral doses of 2 mg, 5 mg, 10 mg, 20 mg, of mizagliflozin, placebo or miglitol 50 mg per dose three times daily to healthy adult male volunteers by a randomized, placebo-controlled, parallel-group, double-blind comparison method. The dose was orally administered with approximately 150 mL of water once daily immediately before breakfast on Days 1 and 13, and three times daily immediately before every meal on Days 3 to 12.
Changes in the following parameters and ΔAUC from 0 to t* hours after breakfast, lunch, and evening meal were measured: Blood glucose level, Serum insulin concentration, Blood active GLP-1 concentration, and Blood total GIP concentration, where t=0.5, 1, 1.5, 2, and 3 (t=0.5, 1, 1.5, 2, 3, and 5 only after breakfast).
In the miglitol group, hyperglycemia was suppressed after breakfast, lunch, and evening meal, as compared to the placebo group. […] These pharmacodynamic effects more or less persisted during 10-day repeated administration. There was no correlation between plasma mizagliflozin concentration and the pharmacodynamic effects. Measurements in Tables 5-8 were performed on Day 3 after breakfast.

The mark [4] stands for this setting: 50 mg per dose, Day 3 after breakfast.

Take `Cc1cc(OCCCNCCC(N)=O)ccc1Cc1c(O[C@@H]2O[C@H](CO)[C@@H](O)[C@H](O)[C@H]2O)n[nH]c1C(C)C` [KGA-2727]: in test [1] (0.03 mg/kg oral), the “Plasma glucose 0 hr” value worked out at 120 ± 9 mg/dL, the “Plasma glucose 0.5 hr” value came out at 354 ± 34 mg/dL, the “Plasma glucose 1 hr” value stood at 342 ± 42 mg/dL and the “Plasma glucose 2 hr” value is 155 ± 24 mg/dL. Also, in test [1] (0.03 mg/kg oral), the “Plasma glucose 3 hr” value came out at 85 ± 6 mg/dL, the “ΔAUC (0-1)” value stood at 172 ± 21 mg·h/dL and the “ΔAUC (0-1) (% of Control)” value was 89 ± 11 % of Control. In addition, in test [1] (0.1 mg/kg oral), the “Plasma glucose 0 hr” value is reported as 116 ± 6 ^ mg/dL, the “Plasma glucose 0.5 hr” value is 233 ± 15^y mg/dL, the “Plasma glucose 1 hr” value is given as 262 ± 19^ mg/dL and the “Plasma glucose 2 hr” value is 194 ± 12^x mg/dL. In test [1] (0.1 mg/kg oral), the “Plasma glucose 3 hr” value was 102 ± 16^ mg/dL, the “ΔAUC (0-1)” value is recorded as 95 ± 14^y mg · dL^−1 · hr and the “ΔAUC (0-1) (% of Control)” value is reported as 49 ± 7^y % of Control. In addition, in test [1], the “PG elevation after glucose administration” value (from here on “PG elevation”) is listed as “inhibited PG elevation after glucose administration dose dependently”. In test [2] (0.03 mg/kg oral), the “Plasma glucose 0 hr” value was 114 ± 7 mg/dL, the “Plasma glucose 0.5 hr” value amounted to 317 ± 28 mg/dL, the “Plasma glucose 1 hr” value is recorded as 250 ± 30 mg/dL and the “Plasma glucose 2 hr” value turned out to be 114 ± 5 mg/dL. Also, in test [2] (0.03 mg/kg oral), the “Plasma glucose 3 hr” value was 104 ± 7 mg/dL, the “ΔAUC (0-1)” value was found to be 135 ± 20 mg·h/dL and the “ΔAUC (0-1) (% of Control)” value is reported as 83 ± 12 % of Control. In test [2] (0.1 mg/kg oral), the “Plasma glucose 0 hr” value is 124 ± 8 mg/dL, the “Plasma glucose 0.5 hr” value is 240 ± 17^y mg/dL, the “Plasma glucose 1 hr” value was 248 ± 29 mg/dL and the “Plasma glucose 2 hr” value was 133 ± 4 mg/dL. Besides, in test [2] (0.1 mg/kg oral), the “Plasma glucose 3 hr” value is reported as 106 ± 9 mg/dL, the “ΔAUC (0-1)” value came out at 89 ± 12 mg·h/dL and the “ΔAUC (0-1) (% of Control)” value was 55 ± 7 % of Control. Moreover, the “PG elevation” value in test [2] is “inhibited PG elevation after glucose administration dose dependently”.
`CC(C)c1[nH]nc(O[C@@H]2O[C@H](CO)[C@@H](O)[C@H](O)[C@H]2O)c1Cc1ccc(CCCC(=O)NC(C)(C)C(=O)N2CCNCC2)cc1` [KGA-2891]: the “PG elevation” value in test [1] and in test [2] was “inhibited PG elevation after glucose administration dose dependently” in each case.
`OCCN1C[C@H](O)[C@@H](O)[C@H](O)[C@H]1CO` [Miglitol, miglitol, reference compound]: in test [3] (setting [4]), the “AUC 0-5 GIP” value was 897.03 pg·h/mL, the “AUC 0-5 GLP-1 (active)” value is 20.5 pmol·h/L, the “AUC 0-5 Insulin” value stood at 138.33 uU*h/ml and the “AUC 0-5 glucose” value was 543.7 mg·h/dL. For the same compound, in test [3] (setting [4]), the “GIP (peak)” value amounted to 235 pg/mL, the “GLP-1 (active) (peak)” value is reported as 6.21 pmol/L, the “Glucose (peak)” value was 121.6 mg/dL and the “Insulin (peak)” value is given as 40.4 uU/ml. For the same compound, in test [3] (setting [4]), the “Time (h) to peak, GIP” value was 3 h; the “Time (h) to peak, GLP-1 (active)” value stood at 0.5 h; the “Time (h) to peak, glucose” value worked out at 1.5 h; the “Time (h) to peak, insulin” value was determined as 2 h. Also, in test [3] (healthy adult male volunteers), the “active GLP-1 concentration” value is recorded as “a tendency toward increase”; the “hyperglycemia after breakfast, lunch, and evening meal” value was “suppressed”; the insulin secretion result is given as “inhibition of insulin secretion”; the “total GIP concentration” value was “inhibition of increase in total GIP concentration”. Besides, the “total GLP-1 concentration” value in test [3] (healthy adult male volunteers) is on record as “an increase in total GLP-1 concentration”.
Regarding `Cc1cc(OCCCN)ccc1Cc1c(O[C@@H]2O[C@H](CO)[C@@H](O)[C@H](O)[C@H]2O)n[nH]c1C(C)C` [KGA-2586], in test [1] (0.03 mg/kg oral), the “Plasma glucose 0 hr” value stood at 128 ± 4 mg/dL, the “Plasma glucose 0.5 hr” value was 351 ± 22 mg/dL, the “Plasma glucose 1 hr” value came out at 350 ± 32 mg/dL and the “Plasma glucose 2 hr” value was 154 ± 20 mg/dL. Further, in test [1] (0.03 mg/kg oral), the “Plasma glucose 3 hr” value was found to be 86 ± 4 mg/dL, the “ΔAUC (0-1)” value came out at 167 ± 20 mg·h/dL and the “ΔAUC (0-1) (% of Control)” value is 86 ± 10 % of Control. For the same compound, in test [1] (0.1 mg/kg oral), the “Plasma glucose 0 hr” value is listed as 121 ± 8 ^ mg/dL, the “Plasma glucose 0.5 hr” value is recorded as 236 ± 18^z mg/dL, the “Plasma glucose 1 hr” value is listed as 257 ± 24^x mg/dL and the “Plasma glucose 2 hr” value is 193 ± 21^x mg/dL. In addition, in test [1] (0.1 mg/kg oral), the “Plasma glucose 3 hr” value is 105 ± 12^ mg/dL, the “ΔAUC (0-1)” value is reported as 91 ± 11^y mg · dL^−1 · hr and the “ΔAUC (0-1) (% of Control)” value is reported as 47 ± 6^y % of Control. In addition, the “PG elevation” value in test [1] was “inhibited PG elevation after glucose administration dose dependently”. For the same compound, in test [2] (0.03 mg/kg oral), the “Plasma glucose 0 hr” value was 118 ± 8 mg/dL, the “Plasma glucose 0.5 hr” value is given as 269 ± 5^y mg/dL, the “Plasma glucose 1 hr” value came to 235 ± 8 mg/dL and the “Plasma glucose 2 hr” value was determined as 112 ± 11 mg/dL. For the same compound, in test [2] (0.03 mg/kg oral), the “Plasma glucose 3 hr” value amounted to 108 ± 10 mg/dL, the “ΔAUC (0-1)” value is on record as 105 ± 4^x mg · dL^−1 · hr and the “ΔAUC (0-1) (% of Control)” value was 64 ± 2^x % of Control. Also, in test [2] (0.1 mg/kg oral), the “Plasma glucose 0 hr” value is reported as 126 ± 7^ mg/dL, the “Plasma glucose 0.5 hr” value was 213 ± 11^z mg/dL, the “Plasma glucose 1 hr” value was found to be 215 ± 13 mg/dL and the “Plasma glucose 2 hr” value is recorded as 144 ± 12 mg/dL. Besides, in test [2] (0.1 mg/kg oral), the “Plasma glucose 3 hr” value is 108 ± 8^ mg/dL, the “ΔAUC (0-1)” value was 65 ± 6^z mg · dL^−1 · hr and the “ΔAUC (0-1) (% of Control)” value was 40 ± 4^z % of Control. Further, the “PG elevation” value in test [2] was “inhibited PG elevation after glucose administration dose dependently”.
Turning to `Cc1cc(OCCCNCC(N)=O)ccc1Cc1c(O[C@@H]2O[C@H](CO)[C@@H](O)[C@H](O)[C@H]2O)n[nH]c1C(C)C` [KGA-2588], in test [1] (0.03 mg/kg oral), the “Plasma glucose 0 hr” value is recorded as 137 ± 6 mg/dL, the “Plasma glucose 0.5 hr” value was 351 ± 29 mg/dL, the “Plasma glucose 1 hr” value was 363 ± 48 mg/dL and the “Plasma glucose 2 hr” value is reported as 185 ± 25 mg/dL. Also, in test [1] (0.03 mg/kg oral), the “Plasma glucose 3 hr” value is 101 ± 4 mg/dL, the “ΔAUC (0-1)” value came to 163 ± 23 mg·h/dL and the “ΔAUC (0-1) (% of Control)” value is listed as 84 ± 12 % of Control. In test [1] (0.1 mg/kg oral), the “Plasma glucose 0 hr” value is on record as 128 ± 8 ^ mg/dL, the “Plasma glucose 0.5 hr” value was 249 ± 32^y mg/dL, the “Plasma glucose 1 hr” value is on record as 286 ± 51^ mg/dL and the “Plasma glucose 2 hr” value is 221 ± 33^x mg/dL. Also, in test [1] (0.1 mg/kg oral), the “Plasma glucose 3 hr” value is 145 ± 5^z mg/dL, the “ΔAUC (0-1)” value is 100 ± 23^x mg · dL^−1 · hr and the “ΔAUC (0-1) (% of Control)” value is listed as 51 ± 12^x % of Control. Further, in test [1], the “PG elevation” value was “inhibited PG elevation after glucose administration dose dependently”. For the same compound, in test [2] (0.03 mg/kg oral), the “Plasma glucose 0 hr” value stood at 120 ± 3 mg/dL, the “Plasma glucose 0.5 hr” value amounted to 291 ± 22 mg/dL, the “Plasma glucose 1 hr” value was determined as 248 ± 17 mg/dL and the “Plasma glucose 2 hr” value is 109 ± 7 mg/dL. Also, in test [2] (0.03 mg/kg oral), the “Plasma glucose 3 hr” value is listed as 100 ± 6 mg/dL, the “ΔAUC (0-1)” value was 117 ± 14 mg·h/dL and the “ΔAUC (0-1) (% of Control)” value is given as 72 ± 9 % of Control. In test [2] (0.1 mg/kg oral), the “Plasma glucose 0 hr” value is recorded as 123 ± 8 mg/dL, the “Plasma glucose 0.5 hr” value is on record as 258 ± 25^x mg/dL, the “Plasma glucose 1 hr” value came out at 224 ± 23 mg/dL and the “Plasma glucose 2 hr” value was determined as 132 ± 4 mg/dL. Moreover, in test [2] (0.1 mg/kg oral), the “Plasma glucose 3 hr” value was determined as 114 ± 6 mg/dL, the “ΔAUC (0-1)” value came out at 93 ± 13 mg·h/dL and the “ΔAUC (0-1) (% of Control)” value is reported as 57 ± 8 % of Control. Besides, the “PG elevation” value in test [2] is listed as “inhibited PG elevation after glucose administration dose dependently”.
